Results as given in patent US10564093B2, “Single injection competition assays” (Molecular Devices, LLC, priority 2015, dated 2020).

Tested on: Carbonic anhydrase II enzyme
Test: SPR single injection competitive binding analysis of CBS in the presence of Furosemide
Description: The binding interaction analysis was carried out using a SPR cell having a sensing region wherein the bound ligand is Carbonic anhydrase II enzyme immobilized on the surface of the biosensor via amine coupling to ˜6500 RU. […] According to the method described above, the dispersion gradient was prepared by initially aspirating, pulling, the Furosemide into the sample holding line followed by pulling the buffer into the sample holding line. […] The dispersion gradient of CBS was prepared using 200 μl of a 2 μM of CBS and 100 μl of buffer. The dispersion gradient of CBS in buffer was prepared by initially aspirating the CBS into the sample holding line followed by pulling the buffer into the sample holding line. The resulting dispersion gradient was immediately injected at a flow rate of 50 μl/min through the SPR sensing region containing the bound ligand.
FIGS. 16-18 will be referenced with regard to the method of determining binding competitive analysis. FIG. 16 reflects the relative concentrations of analyte when performing a binding competition analysis.
In contrast, the relative concentration of CBS will increase as a dispersion gradient during the competitive analysis.
The binding response curves of FIG. 17 were prepared by injecting two samples. […]

## NS(=O)(=O)c1ccc(C(=O)O)cc1 [CBS, 4-carboxy-benzenesulfonamide]
Immobilized Carbonic anhydrase II, constant Furosemide, CBS dispersion gradient, Furosemide control curve subtracted
  binding of CBS to the ligand in the presence of Furosemide (subtracted binding interaction curves, FIG. 18): no binding
No control subtraction, curve remains substantially steady state
  qualitative analysis of binding interaction curve of CBS/Furosemide dispersion gradient (FIG. 17, lines 1 and 3): does not compete and does not contribute to the binding interaction
